Like-named read-outs stand apart in the source and are kept apart here. Some results are limits rather than exact numbers.

The test system of series [1] is zebrafish (Danio rerio) embryos. The series is described as follows: Acute and developmental toxicity in zebrafish embryos. The class given is in vivo. The following applies: 50 µM. The protocol:
(§1) Embryos of wild type (AB) and transgenic Tg(fli1:EGFP) and Tg(-2.8fabp10a:EGFP) zebrafish (Danio rerio) lines were kindly provided by Dr. Ana Cvejić (Wellcome Trust Sanger Institute, Cambridge, UK) and raised to adult stage in a temperature- and light-controlled zebrafish facility at 28 °C and standard 14–10 h light–dark photoperiod. Adult fish were regularly fed with commercial dry food (SDS300 granular food; Special Diet Services, Essex, UK; and TetraMinTM flakes, Tetra, Melle, Germany) twice per day and Artemia nauplii daily. All experiments involving zebrafish were performed in compliance with the European directive 2010/63/EU and the ethical guidelines of the Guide for Care and Use of Laboratory Animals of the Institute of Molecular Genetics and Genetic Engineering, University of Belgrade.
(§2) Toxicity evaluation of the tested compounds in the zebrafish model was carried out following the general rules of the OECD Guidelines for the Testing of Chemicals (OECD, 2013, Test No. 236), and procedures described in the literature. Briefly, wild type (AB) zebrafish produced by pair-wise mating were collected, washed of debris, and distributed into 24-well plates containing 10 embryos/well and 1 mL of E3 medium (5 mM NaCl, 0.17 mM KCl, 0.33 mM CaCl2, and 0.33 mM MgSO4·7H2O in distilled water), and raised at 28 °C.
(§3) To assess acute (lethality), inner organ, and developmental (teratogenicity) toxicity, the embryos at the 6 h post-fertilization (hpf) stage were treated with six different concentrations of each tested compound (100, 50, 25, 12.5, 6.25, and 3.13 µM). Stock solutions of test substances were made in DMSO. Embryo water and DMSO (0.25%) were used as negative and […] controls, respectively. The experiment was performed three times using 20 embryos per concentration. Treated embryos were inspected for 22 toxicological parameters (Table S2) every day by 120 hpf upon a stereomicroscope (Carl Zeiss™ Stemi 508 doc Stereomicroscope, Jena, Germany). Dead embryos were discarded every 24 h. At 120 hpf, embryos were anesthetized by addition of 0.1% (w/v) tricaine solution (Sigma-Aldrich, St. Louis, MO, USA), photographed, and killed by freezing at −20 °C for ≥24 h.

Experiment in series [2]: as above
The class given is in vivo, Danio rerio. The following applies: wild type (AB), zebrafish (Danio rerio), in vivo, other: exposure of embryos in E3 medium, evaluated at 120 hpf; for LC50: embryos treated at 6 hpf; for EC50: teratogenicity, cardiotoxicity, hepatotoxicity, treated at 6 hpf. The protocol: as §1, §2, §3

Series [3] relates to MDA-MB-231 cells. Put plainly: Cell cycle analysis, propidium iodide flow cytometry. Format: cell-based, human. The settings on record: IC50 concentration; for percentage of cells in S phases: 48 h. The procedure:
MDA-MB-231 cells were treated with tested compounds for specified time courses. After treatment, examined cells were washed in cold PBS and incubated for 30 min in 96% ethanol on ice, centrifuged, and incubated with 80 μL RNase A ([…]) and 50 μL propidium iodide (50 μg/mL) for 30 min at 37 °C. The cell cycle was analyzed by FACS Calibur E440 (Becton Dickinson) flow cytometer and Cell Quest software. Results are presented as a percentage of cell cycle phases.

Series [4] has as its target T1, Human recombinant C-terminal His-tag-HDAC8 (Homo sapiens, UniProt Q9BY41).
T1 construct: His (C); purchased BPS Bioscience 50008
T1 sequence (Q9BY41 1-377): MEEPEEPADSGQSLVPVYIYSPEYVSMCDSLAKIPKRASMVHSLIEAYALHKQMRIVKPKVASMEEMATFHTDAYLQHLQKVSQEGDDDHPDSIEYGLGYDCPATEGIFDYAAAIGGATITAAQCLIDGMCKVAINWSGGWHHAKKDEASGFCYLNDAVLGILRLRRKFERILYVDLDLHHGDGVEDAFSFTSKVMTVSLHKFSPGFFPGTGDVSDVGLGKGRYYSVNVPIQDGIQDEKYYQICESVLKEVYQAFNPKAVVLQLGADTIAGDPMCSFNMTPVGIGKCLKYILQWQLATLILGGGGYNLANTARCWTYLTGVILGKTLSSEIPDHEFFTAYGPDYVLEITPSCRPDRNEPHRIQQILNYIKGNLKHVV
Put plainly: HDAC-Glo I/II bioluminogenic enzyme assay, HDAC8. The class given is biochemical. The settings on record: mean ± SD of three independent experiments; read-out: HDAC Inhibition, IC50 ± SD, HDAC8.

Series [5] deals with MDA-MB-231 cells. The series is described as follows: Matrigel invasion assay. Format: cell-based, human. The settings on record: 24 h; 5 μM 8b, 10 μM 9b. The protocol: To determine MDA-MB-231 cell migration and invasion cell capacities, Corning® Costar® Transwell® cell culture inserts with 8.0 μm pore polycarbonate filters (Sigma Aldrich, CLS3464) and Corning™ BioCoat™ Matrigel™ Invasion Chamber with Corning Matrigel Matrix™ cell culture inserts (Thermo fisher scientific, Waltham, MA, USA) respectively were used. Briefly, 6 × 10^4 cells in 200 μL were seeded in the upper chamber and the bottom chamber was filled with 800 μL of medium. After 24 h under indicated treatments, the remaining cells in the upper chamber were gently removed with a cotton swab, moistened with medium, and the inserts were carefully washed twice with 37 °C warmed PBS. Then, attached cells at the bottom side of the membrane were fixed by immersing in ice cold methanol for 2 min and stained with 0.1% crystal violet for 15 min at room temperature. Stained cells were photographed and quantified using NIH ImageJ software.

Series [6] has as its system MDA-MB-231 cells. The series is described as follows: Cell viability (MTT) assay, MDA-MB-231. The settings on record: read-out: Cytotoxic activity IC50 ± SD, MDA-MB-231. Format: cell-based, human. The protocol: Human breast adenocarcinoma cells (MCF-7, ATCC® HTB-22™) and triple-negative breast cancer cells (MDA-MB-231, ATCC® HTB-26™) were obtained from the American Type Culture Collection (Rockville, MD, USA). Cells were maintained as a monolayer culture in DMEM:Ham’s 12 (1:1) medium (Sigma-Aldrich, St. Louis, MO, USA) supplemented with penicillin (192 U/mL), streptomycin (200 µg/mL), and 10% of heat-inactivated fetal calf serum (FCS). Cells were grown at 37 °C in 5% CO2 and humidified air atmosphere, by twice weekly subculture.
Cytotoxic activity of synthesized 1-benzhydryl-piperazine-based HDAC inhibitors was assessed on MDA-MB-231 and MCF-7 cells using an MTT assay. MDA-MB-231 (5 × 10^3 cells/well) and MCF-7 (5 × 10^3 cells/well) were treated with synthesized compounds in six different concentrations (100, 50, 25, 12.5, 6.25, and 3.13 μM), and each concentration was added in five replicates. MTT solution (3-(4,5-dimethylthiazol-2-yl)-2,5-diphenyltetrazolium bromide) (Sigma-Aldrich, St. Louis, USA) was added to each well (20 µL) after 48 h. After 4 h of incubation, 100 μL of 10% SDS was added in each well and incubated at 37 °C. On the next day, the absorbance at 570 nm was recorded. The ratio of absorbance (570 nm) values between treated and control cells multiplied by 100 was used to calculate cell survival (%). The concentration of synthesized HDAC inhibitors that reduced cell viability by 50% was defined as the IC50 value, and was compared to the vehicle control.

As for `O=C(NO)c1ccc(CN2CCN(C(c3ccccc3)c3ccccc3)CC2)cc1` [Compound 9b, 4-(4-(diphenylmethyl)-piperazin-1-ylmethyl)-N-hydroxy-benzamide], the “embryos with teratogenicity, cardio- or hepatotoxicity” value in series [1] was 32%. Further, the median lethal concentration (LC50) in series [2] is over 100 µM. Besides, in series [2], it took 53.8 µM to reach a half-maximal effect (EC50). In addition, in series [3] (24 h), the “percentage of cells in the S phase” value is listed as “increased”. For the same compound, the “percentage of cells in S phases” value in series [3] is “increased”. For the same compound, the half-inhibitory concentration (IC50) in series [4] was found to be 0.708 ± 0.045 µM; in series [6] (48 h), 38.2 ± 3.01 µM; in series [6] (Homo sapiens, MDA-MB-231, 48 h) it was 38.1 µM. Further, in series [5], the “anti-invasive property (% compared to control)” value is reported as “did not reduce”.

Turning to `O=C(CCCCCCCN1CCN(C(c2ccccc2)c2ccccc2)CC1)NO` [Compound 8b, 8-(4-(diphenylmethyl)-piperazin-1-yl)-N-hydroxyoctanamide], the “embryos with teratogenicity, cardio- or hepatotoxicity” value in series [1] is “none”. In series [2], the LC50 was over 100 µM and the half-maximal effective concentration (EC50) came to 79.5 µM. Moreover, the “percentage of cells in the G2/M phase” value in series [3] (24 h) is “slight increase”. The “percentage of cells in S phases” value in series [3] is reported as “increased”. For the same compound, the IC50 in series [4] was 0.245 ± 0.002 µM. Further, the “anti-invasive property (% compared to control)” value in series [5] is reported as 59%. In series [6] (Homo sapiens, MDA-MB-231, 48 h), the IC50 came out at 5.42 ± 0.77 µM.

For `O=C(CCCCCCN1CCN(C(c2ccccc2)c2ccccc2)CC1)NO` [Compound 7b, 7-(4-(diphenylmethyl)-piperazin-1-yl)-N-hydroxyheptanamide], the “percentage of cells in the G2/M phase” value in series [3] (24 h) is on record as “slight increase”. The “percentage of cells in S phases” value in series [3] was “increased”. The IC50 in series [4] turned out to be 0.345 ± 0.017 µM; in series [6] (Homo sapiens, MDA-MB-231, 48 h), 10.6 ± 1.95 µM.

For the origin of these results see article PMC9785542, “Discovery of 1-Benzhydryl-Piperazine-Based HDAC Inhibitors with Anti-Breast Cancer Activity: Synthesis, Molecular Modeling, In Vitro and In Vivo Biological Evaluation” (Pharmaceutics, 2022).
